Data as given in PMC9231138, “Dihydrotanshinone I Enhances Cell Adhesion and Inhibits Cell Migration in Osteosarcoma U−2 OS Cells through CD44 and Chemokine Signaling” (Molecules, 2022).

Assays:
Format in all cases: cell-based, human
[1] = system: cyclin D1; assay: RT-PCR cyclin D1 mRNA in U−2 OS cells; settings: 24 h
Procedure: (§1) Total RNA within cells was extracted by the RNAeasy™ Animal Long RNA Isolation Kit with Spin Column (Shanghai, Beyotime); the concentrations and OD260/OD280 and OD230/OD260 values were measured by NanoDrop. Five micrograms of RNA was used for reverse transcription; each sample was diluted to 16 μL, and 4 μL of synthesized premix solution (5×) was added, then the mixtures were placed in a 42 °C water bath for 10 min, then an 80 °C water bath for 10 min to deactivate reverse transcriptase. After reverse transcription, each sample was diluted to 140 μL. PCR amplification was carried out by the ABI700 real-time PCR system, and the amplification reaction was detected with a SYBR probe. After PCR, actin and GAPDH were used as internal references, and the relative standard curve method (2^−ΔΔcT) determined the relative expression of mRNA.

[2] = system: cyclin E1; assay: RT-PCR cyclin E1 mRNA in U−2 OS cells; settings: 24 h
Procedure: as §1

[3] = system: slug; assay: RT-PCR slug mRNA in U−2 OS cells; settings: 24 h
Procedure: as §1

[4] = system: U−2 OS cells; assay: RNA-seq differential gene expression; settings: DS−1 6.25 µM, 24 h
Procedure: Sample preparation: U−2 OS cells were seeded in a 10 cm culture dish, and we cultured them to the logarithmic growth phase, suctioned the previous medium, and added new medium with DS−1 at 0 and 6.25 μM; each group was repeated two times. After 24 h of culture, the dish was washed with PBS reagent 3 times. One milliliter of TRIzol reagent was added to every dish for cell lysate and then collected in centrifuge tubes.
Transcriptome sequencing and analysis were carried out by Novogene Bioinformatics Technology Co., Ltd. (Beijing, China).
Raw data in the fastq format were firstly processed through in-house Perl scripts. In this step, clean data were obtained by removing reads containing adapter or containing ploy-N and low-quality reads from raw data. […]
Reference genome and gene model annotation files were downloaded from the genome website directly. The index of the reference genome was built using Hisat2 v2.0.5 (https://github.com/DaehwanKimLab/hisat2, accessed on 4 May 2022), and paired-end clean reads were aligned to the reference genome using Hisat2 v2.0.5. FeatureCounts v1.5.0-p3 (https://github.com/byee4/featureCounts, accessed on 4 May 2022) was used to count the reads numbers mapped to each gene. Then the Fragments PerKilobase of transcript sequence per Millions […] (FPKMs) of each gene were calculated based on the length of the gene and reads’ count mapped to this gene. […]

[5] = system: U−2 OS cells; assay: Length of actin protrusions (Image J); settings: DS−1 for 24 h
Procedure: Figure 8 CD44 knockdown reduced cell adhesion by shortening cell protrusions. (A) U−2 OS cells transfected with CD44 siRNA and no siRNA were seeded into a 24-well plate treated with 7.5 μM DS−1 for 24 h, and the expression of CD44 was detected by immunofluorescence. (B) CD44 expression of U−2 OS cells was detected by Western blotting after being treated with siRNA for 0, 24, and 36 h. (C) U−2 OS cells were first transfected with/without CD44 siRNA and then treated with DS−1 for 24 h, and its actin morphologies were detected. The representative magnified actin morphologies are listed in (D). (E) The lengths of protrusions in (C) were analyzed by Image J and are shown in a scatterplot graph. The lengths of 20 protrusions from actin in (C) were calculated. Each value is the average of 20 lengths of protrusions, ** p < 0.01, *** p < 0.005. (F) U−2 OS cells were transfected with CD44 siRNA, then treated with 0 and 7.5 μM DS−1 for 24 h and digested with trypsin at 25 °C; the digestion time was recorded by a microscope, and photos were taken every 30 s. The percentage of digested cells is recorded in (G).
Actin promotes the formation of protrusions around the cells. After CD44 knockdown and DS−1 treatment, the morphology of actin was observed. The average length of protrusions was measured by Image J [59]. […]

[6] = system: CXCL8; assay: RT-PCR CXCL8 mRNA in U−2 OS cells; settings: 24 h
Procedure: as §1

[7] = first of three DS−1 doses (2.5 µM per Fig. 5 legend)
[8] = second of three DS−1 doses (5.0 µM per Fig. 5 legend)
[9] = third of three DS−1 doses (7.5 µM per Fig. 5 legend)

## Cc1cccc2c3c(ccc12)C1=C(C(=O)C3=O)[C@@H](C)CO1 [DS−1, 15,16-Dihydrotanshinone I]
[1]; [7]
  cyclin D1 mRNA, fold of the control group: 0.27 ± 0.06 fold
[1]; [8]
  cyclin D1 mRNA, fold of the control group: 0.29 ± 0.06 fold
[1]; [9]
  cyclin D1 mRNA, fold of the control group: 0.20 ± 0.04 fold
[2]; [7]
  cyclin E1 mRNA, fold of the control group: 0.52 ± 0.04 fold
[2]; [8]
  cyclin E1 mRNA, fold of the control group: 0.48 ± 0.08 fold
[2]; [9]
  cyclin E1 mRNA, fold of the control group: 0.36 ± 0.04 fold
[3]; DS−1 5.0 µM
  slug mRNA, fold of the control group: 0.58 ± 0.13 fold
[3]; DS−1 7.5 µM
  slug mRNA, fold of the control group: 0.45 ± 0.07 fold
[4]
  number of genes downregulated (of 23,517 detected): 4643 genes
  number of genes upregulated (of 23,517 detected): 4104 genes
[5]; CD44 knockdown group, knockdown without DS−1 0.203 ± 0.056 μm
  average length of protrusions: 0.213 ± 0.061 μm
[5]; no CD44 siRNA, control 0.307 ± 0.097 μm
  average length of protrusions: 0.403 ± 0.103 μm
[6]; DS−1 2.5 µM
  CXCL8 mRNA, fold: 1.49 ± 0.10 fold
[6]; DS−1 5.0 µM
  CXCL8 mRNA, fold: 3.34 ± 0.49 fold
[6]; DS−1 7.5 µM
  CXCL8 mRNA, fold: 3.71 ± 0.53 fold
